Experimental data taken from patent US20080275058A1, “N-Substituted-1H-Quinoline-2,4-Diones, Preparation Method Thereof, And Pharmaceutical Composition Containing The Same” (KOREA RESEARCH INSTITUTE OF CHEMICAL TECHNOLOGY, priority 2005, published 2008).
Read-outs that look alike come from different tables or passages of the source.

Tests used:
[1] = biological target: T1, hD3 (Homo sapiens, UniProt P35462); test: Radioligand binding, dopamine D3 ([3H]spiperone); settings: Table 4; [3H]spiperone 1 nM; read-out: Binding affinity, IC50 (nM) D3
T1 construct: purchased BioSignal Packard Inc., Montreal, Canada
Protocol: (§1) 2-2: Binding assays of Dopamine Receptor Family
(§2) The radioligands used were [^3H] spiperone (for hD2L and hD3 receptors, 1 nM) and [^3H] YM-09151-2 (for hD4.2 receptor, 0.06 nM). Radioligand bindings were performed by the protocols provided by the supplier of receptor membranes (BioSignal Packard Inc., Montreal, Canada). Briefly, the buffer used in D2 or D3 receptor binding assay was 50 mM Tris-HCl (pH 7.4), 10 mM MgCl2, 1 mM EDTA, or 50 mM Tris-HCl (pH 7.4), 5 mM MgCl2, 5 mM EDTA, 5 mM KCl, 1.5 mM CaCl2, 120 mM NaCl, respectively. In [^3H] YM-09151-2 receptor binding assays, the buffer containing 50 mM Tris-HCl (pH 7.4), 5 mM MgCl2, 5 mM EDTA, 5 mM KCl and 1.5 mM CaCl2 was used. […] Competition binding studies were carried out with 7-8 concentrations of the test compound run in duplicate tubes, and isotherms from three assays were calculated by computerized nonlinear regression analysis (GraphPad Prism Program, San Diego, […]) to yield median inhibitory concentration (IC50) values.

[2] = biological target: D1 (Homo sapiens, UniProt P21728); test: Radioligand binding, dopamine D1; settings: Table 4; read-out: Binding affinity, IC50 (nM) D1
[3] = biological target: T2, 5-HT2c (Homo sapiens, UniProt P28335); test: Radioligand binding, 5-HT2c ([3H]Mesulergine); settings: Table 4; [3H]Mesulergine 1 nM; read-out: Binding affinity, IC50 (nM) 5-HT2c
T2 construct: purchased Euroscreen/BioSignal Packard Inc
T2 sequence (P28335 33-458): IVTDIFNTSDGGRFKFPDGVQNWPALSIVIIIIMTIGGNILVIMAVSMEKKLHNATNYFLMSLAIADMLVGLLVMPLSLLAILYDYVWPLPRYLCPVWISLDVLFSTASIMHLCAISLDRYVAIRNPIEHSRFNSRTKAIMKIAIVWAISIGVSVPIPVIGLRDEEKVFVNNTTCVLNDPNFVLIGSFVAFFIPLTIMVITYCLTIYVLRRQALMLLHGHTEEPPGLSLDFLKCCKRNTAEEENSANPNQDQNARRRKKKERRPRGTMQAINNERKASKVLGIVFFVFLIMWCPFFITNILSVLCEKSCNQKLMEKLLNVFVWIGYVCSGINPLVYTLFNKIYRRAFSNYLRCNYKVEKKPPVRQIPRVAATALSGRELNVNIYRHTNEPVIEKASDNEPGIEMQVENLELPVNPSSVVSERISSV

[4] = biological target: T3, Human serotonin 5-HT6 receptor (Homo sapiens, UniProt P50406); test: [3H]LSD binding assay on cloned 5-HT6 receptor membranes; settings: for binding affinity at 5-HT6 receptor labeled by [3H]LSD, in words: comment on Table 2
T3 construct: made in house; host or cells: insect Sf21 cells (baculovirus vector BacPAK8)

[5] = biological target: T4, 5-HT7 (Homo sapiens, UniProt P34969); test: Radioligand binding, 5-HT7 ([3H]LSD); settings: Table 4; [3H]LSD 3 nM; read-out: Binding affinity, IC50 (nM) 5-HT7
T4 construct: purchased Euroscreen/BioSignal Packard Inc

[6] = biological target: T5, 5-HT2a (Homo sapiens, UniProt P28223); test: Radioligand binding, 5-HT2a ([3H]Ketanserin); settings: Table 4; [3H]Ketanserin 1 nM; read-out: Binding affinity, IC50 (nM) 5-HT2a
T5 construct: purchased Euroscreen/BioSignal Packard Inc

[7] = biological target: T6, hD4.2 receptor (Homo sapiens, UniProt P21917, DEL265-296); test: Radioligand binding, dopamine D4 ([3H]YM-09151-2); settings: Table 4; [3H]YM-09151-2 0.06 nM; read-out: Binding affinity, IC50 (nM) D4
T6 construct: purchased BioSignal Packard Inc., Montreal, Canada
T6 sequence (P21917 with tags, fused parts or gaps DEL265-296): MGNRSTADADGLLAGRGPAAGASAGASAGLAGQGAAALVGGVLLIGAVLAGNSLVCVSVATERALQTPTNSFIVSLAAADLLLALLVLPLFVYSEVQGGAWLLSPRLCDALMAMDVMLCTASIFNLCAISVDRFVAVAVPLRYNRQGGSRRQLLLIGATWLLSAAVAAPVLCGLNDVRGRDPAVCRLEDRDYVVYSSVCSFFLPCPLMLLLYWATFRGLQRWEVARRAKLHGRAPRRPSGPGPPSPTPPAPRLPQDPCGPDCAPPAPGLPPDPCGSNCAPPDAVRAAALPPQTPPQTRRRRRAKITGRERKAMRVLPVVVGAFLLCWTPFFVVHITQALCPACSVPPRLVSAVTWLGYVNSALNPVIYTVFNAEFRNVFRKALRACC
Protocol: as §1, §2

[8] = biological target: T7, 5-HT1a (Homo sapiens, UniProt P08908); test: Radioligand binding, 5-HT1a ([3H]8-OH-DPAT); settings: Table 4; [3H]8-OH-DPAT 0.5 nM; read-out: Binding affinity, IC50 (nM) 5-HT1a
T7 construct: purchased Euroscreen/BioSignal Packard Inc
T7 sequence (P08908 1-422): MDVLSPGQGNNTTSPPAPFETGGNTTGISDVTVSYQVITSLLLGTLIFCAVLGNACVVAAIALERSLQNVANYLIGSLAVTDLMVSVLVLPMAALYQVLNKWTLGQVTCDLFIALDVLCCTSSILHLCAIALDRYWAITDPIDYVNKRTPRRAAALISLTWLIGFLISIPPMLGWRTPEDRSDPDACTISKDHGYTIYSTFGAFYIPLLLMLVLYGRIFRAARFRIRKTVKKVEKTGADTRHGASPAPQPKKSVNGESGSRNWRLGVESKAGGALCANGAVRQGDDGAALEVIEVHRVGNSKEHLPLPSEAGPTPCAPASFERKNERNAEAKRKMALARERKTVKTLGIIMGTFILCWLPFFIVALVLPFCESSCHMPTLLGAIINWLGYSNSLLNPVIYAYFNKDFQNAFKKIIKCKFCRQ
Protocol: Radioligand bindings were performed according to the test method provided by the supplier of receptor membrane (Euroscreen/BioSignal Packard Inc.). The detailed assay conditions and the results were shown in the following Table 3 and Table 4, respectively.

[9] = biological target: T8, hD2L (Homo sapiens, UniProt P14416); test: Radioligand binding, dopamine D2 ([3H]spiperone); settings: Table 4; [3H]spiperone 1 nM; read-out: Binding affinity, IC50 (nM) D2
T8 construct: purchased BioSignal Packard Inc., Montreal, Canada
Protocol: as §1, §2

[10] = Table 2, 1.87 nM [3H]LSD, 37 C, 60 min, read-out: IC50 (nM), binding affinity to the 5-HT6 receptor
[11] = Table 4, read-out: Binding affinity, IC50 (nM) 5-HT6

T8 sequence (P14416 whole entry): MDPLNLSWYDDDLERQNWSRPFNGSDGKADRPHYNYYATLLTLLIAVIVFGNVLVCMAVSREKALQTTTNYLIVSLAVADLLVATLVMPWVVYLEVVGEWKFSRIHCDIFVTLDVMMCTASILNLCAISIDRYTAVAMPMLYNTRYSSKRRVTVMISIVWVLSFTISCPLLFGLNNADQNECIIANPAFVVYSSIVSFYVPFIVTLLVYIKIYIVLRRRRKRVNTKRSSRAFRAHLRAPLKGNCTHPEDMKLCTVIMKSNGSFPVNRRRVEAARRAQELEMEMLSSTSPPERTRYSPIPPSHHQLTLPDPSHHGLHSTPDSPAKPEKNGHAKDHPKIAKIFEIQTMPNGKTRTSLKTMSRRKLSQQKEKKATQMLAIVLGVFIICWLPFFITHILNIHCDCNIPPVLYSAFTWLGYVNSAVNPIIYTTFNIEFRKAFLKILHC
T4 sequence (P34969 whole entry): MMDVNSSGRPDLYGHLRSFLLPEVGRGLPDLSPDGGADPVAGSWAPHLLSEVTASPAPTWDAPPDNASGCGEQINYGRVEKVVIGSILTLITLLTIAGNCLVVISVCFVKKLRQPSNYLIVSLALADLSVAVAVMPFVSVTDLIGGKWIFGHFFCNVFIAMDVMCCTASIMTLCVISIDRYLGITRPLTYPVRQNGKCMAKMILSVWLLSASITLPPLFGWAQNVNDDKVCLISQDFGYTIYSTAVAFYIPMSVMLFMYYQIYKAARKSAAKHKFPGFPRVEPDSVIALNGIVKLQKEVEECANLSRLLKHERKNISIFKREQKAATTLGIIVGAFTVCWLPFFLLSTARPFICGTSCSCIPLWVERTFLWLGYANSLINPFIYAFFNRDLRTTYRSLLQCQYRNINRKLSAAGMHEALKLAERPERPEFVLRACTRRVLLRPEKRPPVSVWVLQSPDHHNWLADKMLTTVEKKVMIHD
T1 sequence (P35462 whole entry): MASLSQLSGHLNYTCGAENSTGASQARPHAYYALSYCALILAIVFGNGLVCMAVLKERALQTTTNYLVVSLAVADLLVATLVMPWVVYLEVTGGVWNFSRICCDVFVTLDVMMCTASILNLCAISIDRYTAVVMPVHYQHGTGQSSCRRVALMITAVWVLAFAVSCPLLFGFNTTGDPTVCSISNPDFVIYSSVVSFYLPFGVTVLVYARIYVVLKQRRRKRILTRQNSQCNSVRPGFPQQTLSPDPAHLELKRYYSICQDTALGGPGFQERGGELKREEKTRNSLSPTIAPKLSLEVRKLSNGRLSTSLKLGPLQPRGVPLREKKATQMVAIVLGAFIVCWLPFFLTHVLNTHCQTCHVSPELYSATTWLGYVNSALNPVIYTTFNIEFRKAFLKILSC
T3 sequence (P50406 whole entry): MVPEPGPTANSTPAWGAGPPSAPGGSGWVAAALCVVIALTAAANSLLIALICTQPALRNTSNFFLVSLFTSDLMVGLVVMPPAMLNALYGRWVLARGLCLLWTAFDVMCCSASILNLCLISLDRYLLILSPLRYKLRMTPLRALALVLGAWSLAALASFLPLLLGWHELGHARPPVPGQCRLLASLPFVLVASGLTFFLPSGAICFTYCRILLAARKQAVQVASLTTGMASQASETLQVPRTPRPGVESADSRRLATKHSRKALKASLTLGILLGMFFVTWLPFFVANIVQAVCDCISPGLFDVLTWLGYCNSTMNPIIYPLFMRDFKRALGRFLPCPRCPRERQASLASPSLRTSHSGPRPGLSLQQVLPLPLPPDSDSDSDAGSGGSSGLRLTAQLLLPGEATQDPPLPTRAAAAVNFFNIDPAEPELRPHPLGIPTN
D1, sequence (P21728 whole entry): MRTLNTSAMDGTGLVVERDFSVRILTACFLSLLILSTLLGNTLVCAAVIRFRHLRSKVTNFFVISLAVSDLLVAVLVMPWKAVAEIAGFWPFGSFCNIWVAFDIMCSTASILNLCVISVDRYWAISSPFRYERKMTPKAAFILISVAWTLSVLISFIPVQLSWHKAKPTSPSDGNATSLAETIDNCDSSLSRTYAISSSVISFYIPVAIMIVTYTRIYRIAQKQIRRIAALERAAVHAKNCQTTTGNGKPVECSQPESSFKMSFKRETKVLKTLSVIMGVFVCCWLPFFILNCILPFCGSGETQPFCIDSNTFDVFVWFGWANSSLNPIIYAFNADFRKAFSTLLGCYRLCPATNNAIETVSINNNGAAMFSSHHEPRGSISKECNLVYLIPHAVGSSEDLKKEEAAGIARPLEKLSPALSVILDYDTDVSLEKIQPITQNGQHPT
T5 sequence (P28223 whole entry): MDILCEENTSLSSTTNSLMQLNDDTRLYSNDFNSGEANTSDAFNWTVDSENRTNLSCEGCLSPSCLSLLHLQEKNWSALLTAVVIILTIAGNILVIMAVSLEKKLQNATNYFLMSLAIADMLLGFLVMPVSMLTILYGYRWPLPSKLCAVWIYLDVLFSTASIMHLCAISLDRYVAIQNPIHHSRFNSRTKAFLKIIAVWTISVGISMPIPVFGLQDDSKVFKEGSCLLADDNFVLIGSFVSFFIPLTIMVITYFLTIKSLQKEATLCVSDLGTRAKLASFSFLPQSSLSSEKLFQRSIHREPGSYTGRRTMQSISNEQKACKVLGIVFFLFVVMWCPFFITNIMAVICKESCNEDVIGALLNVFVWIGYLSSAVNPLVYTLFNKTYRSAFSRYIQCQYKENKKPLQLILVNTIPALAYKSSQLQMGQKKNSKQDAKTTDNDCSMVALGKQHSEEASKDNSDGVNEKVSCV

CN1CCN(c2cc(Cl)cc3c2C(=O)C(C)(c2ccc(O)cc2)C(=O)N3Cc2cccc([N+](=O)[O-])c2)CC1 (stereo not shown) [Example 8, 7-Chloro-3-(4-hydroxy-phenyl)-3-methyl-5-(4-methyl-piperazin-1-yl)-1-(3-nitro-benzyl)-1H-quinoline-2,4-dione]
IC50 [1]: 9020 nM | IC50 [2]: 7040 nM | IC50 [3]: 8810 nM | IC50 [4, 10]: 23.8 nM | IC50 [4, 11]: 16.8 nM | IC50 [5]: 9440 nM | IC50 [6]: 6950 nM | IC50 [7]: 9150 nM | melting point: 262 to 264 °C | IC50 [8]: 7510 nM | IC50 [9]: 7290 nM

COc1ccc(C2(C)C(=O)c3c(N4CCNCC4)cc(Cl)cc3N(Cc3ccccc3OC)C2=O)cc1 (stereo not shown) [Example 29, 7-Chloro-1-(2-methoxy-benzyl)-3-(4-methoxy-phenyl)-3-methyl-5-piperazin-1-yl-1H-quinoline-2,4-dione]
IC50 [1]: 9410 nM | IC50 [2]: 7810 nM | IC50 [3]: 8050 nM | IC50 [4, 10]: 34.2 nM | IC50 [4, 11]: 15 nM | IC50 [5]: 7500 nM | IC50 [6]: 9150 nM | IC50 [7]: 9000 nM | melting point: 153 to 155 °C | IC50 [8]: 7580 nM | IC50 [9]: 9170 nM

COc1ccc(C2(C)C(=O)c3c(N4CCNCC4)cc(Cl)cc3N(Cc3cccc(N)c3)C2=O)cc1 (stereo not shown) [Example 25, 1-(3-Amino-benzyl)-7-chloro-3-(4-methoxy-phenyl)-3-methyl-5-piperazin-1yl-1H-quinoline-2,4-dione]
IC50 [1]: 9660 nM | IC50 [2]: 6520 nM | IC50 [3]: 7600 nM | IC50 [4, 10]: 6.2 nM | IC50 [4, 11]: 15.9 nM | IC50 [5]: 8050 nM | IC50 [6]: 6610 nM | IC50 [7]: 9750 nM | melting point: 183 to 184 °C | IC50 [8]: 5890 nM | IC50 [9]: 7650 nM

COc1ccc(C2(C)C(=O)c3c(N4CCNCC4)cc(Cl)cc3N(Cc3ccc(-c4ccccc4)cc3)C2=O)cc1 (stereo not shown) [Example 41, 1-Biphenyl-4-ylmethyl-7-chloro-3-(4-methoxy-phenyl)-3-methyl-5-piperazin-1-yl-1H-quinoline-2,4-dione]
IC50 [1]: 9000 nM | IC50 [2]: 6000 nM | IC50 [3]: 8090 nM | IC50 [4, 10]: 351 nM | IC50 [4, 11]: 15.5 nM | IC50 [5]: 7010 nM | IC50 [6]: 8470 nM | IC50 [7]: 9110 nM | melting point: 142 to 144 °C | IC50 [8]: 7810 nM | IC50 [9]: 7680 nM

COc1cccc(C2(C)C(=O)c3c(N4CCNCC4)cc(Cl)cc3N(Cc3ccccc3)C2=O)c1 (stereo not shown) [Example 50, 1-Benzyl-7-chloro-3-(3-methoxy-phenyl)-3-methyl-5-piperazin-1-yl-1H-quinoline-2,4-dione]
IC50 [1]: 9760 nM | IC50 [2]: 7740 nM | IC50 [3]: 7470 nM | IC50 [4, 10]: 1.8 nM | IC50 [4, 11]: 18.4 nM | binding affinity at 5-HT6 receptor labeled by [3H]LSD, in words [4]: significant affinities | IC50 [5]: 7640 nM | IC50 [6]: 9150 nM | IC50 [7]: 9040 nM | melting point: 110 to 112 °C | IC50 [8]: > 1000 nM | IC50 [9]: 7190 nM

COc1ccc(C2(C)C(=O)c3c(N4CCNCC4)cc(Cl)cc3N(CC3CCCCC3)C2=O)cc1 (stereo not shown) [Example 48, 7-Chloro-1-cyclohexylmethyl-3-(4-methoxy-phenyl)-3-methyl-5-piperazin-1-yl-1H-quinoline-2,4-dione]
IC50 [1]: 8990 nM | IC50 [2]: 7650 nM | IC50 [3]: 8660 nM | IC50 [4, 10]: 251 nM | IC50 [4, 11]: 16 nM | IC50 [5]: 8520 nM | IC50 [6]: 5910 nM | IC50 [7]: 9010 nM | melting point: 127 to 128 °C | IC50 [8]: 7540 nM | IC50 [9]: 7510 nM

CC1(c2ccc(O)cc2)C(=O)c2c(N3CCNCC3)cc(Cl)cc2N(Cc2ccc(-c3ccccc3)cc2)C1=O (stereo not shown) [Example 42, 1-Biphenyl-4-ylmethyl-7-chloro-3-(4-hydroxy-phenyl)-3-methyl-5-piperazin-1-yl-1H-quinoline-2,4-dione]
IC50 [1]: 9210 nM | IC50 [2]: 6120 nM | IC50 [3]: 7600 nM | IC50 [4, 10]: 164 nM | IC50 [4, 11]: 16.1 nM | IC50 [5]: 6730 nM | IC50 [6]: 8190 nM | IC50 [7]: 9410 nM | melting point: 240 to 241 °C | IC50 [8]: 6640 nM | IC50 [9]: 6850 nM

CC1(c2ccc(O)cc2)C(=O)c2c(N3CCNCC3)cc(Cl)cc2N(Cc2ccc3ccccc3n2)C1=O (stereo not shown) [Example 45, 7-Chloro-3-(4-hydroxy-phenyl)-3-methyl-5-piperazin-1-yl-1-quinolin-2-ylmethyl-1H-quinoline-2,4-dione]
IC50 [1]: 9160 nM | IC50 [2]: 8410 nM | IC50 [3]: > 1000 nM | IC50 [4, 10]: 11.4 nM | IC50 [4, 11]: 16.4 nM | IC50 [5]: 9450 nM | IC50 [6]: > 10000 nM | IC50 [7]: 8510 nM | melting point: 278 to 279 °C | IC50 [8]: > 10000 nM | IC50 [9]: 7680 nM

CC1(c2ccc(O)cc2)C(=O)c2c(N3CCNCC3)cc(Cl)cc2N(CC2CCCCC2)C1=O (stereo not shown) [Example 49, 7-Chloro-1-cyclohexylmethyl-3-(4-hydroxy-phenyl)-3-methyl-5-piperazin-1-yl-1H-quinoline-2,4-dione]
IC50 [1]: 8680 nM | IC50 [2]: 8140 nM | IC50 [3]: 7530 nM | IC50 [4, 10]: 11.7 nM | IC50 [4, 11]: 17.5 nM | IC50 [5]: 9510 nM | IC50 [6]: 5810 nM | IC50 [7]: 8780 nM | melting point: 175 to 176 °C | IC50 [8]: 6300 nM | IC50 [9]: > 10000 nM

CC1(c2ccc(O)cc2)C(=O)c2c(N3CCNCC3)cc(Cl)cc2N(Cc2ccc(O)cc2)C1=O (stereo not shown) [Example 32, 7-Chloro-1-(4-hydroxy-benzyl)-3-(4-hydroxy-phenyl)-3-methyl-5-piperazin-1-yl-1H-quinoline-2,4-dione]
IC50 [1]: 9110 nM | IC50 [2]: 9010 nM | IC50 [3]: 7890 nM | IC50 [4, 10]: 1.7 nM | IC50 [4, 11]: 15.2 nM | binding affinity at 5-HT6 receptor labeled by [3H]LSD, in words [4]: significant affinities | IC50 [5]: 8310 nM | IC50 [6]: 7450 nM | IC50 [7]: 9450 nM | melting point: 241 to 242 °C | IC50 [8]: 6580 nM | IC50 [9]: 6960 nM
